Experimental data: US20140194373A1, “COSMETIC USE OF […] A DERIVATIVE THEREOF IN THE PREVENTION AND/OR TREATMENT OF BODY ODOUR” (NESTEC S.A., priority 2011, published 2014)

Test system: dermicidin
Test: Differential proteomic analysis (iTRAQ) of stratum corneum varnish strips after oral supplementation, randomized double-blind study
Format: in vivo, women
Settings: 500 mg of hesperidin per day, samples at D1 and D168, left leg, compared with placebo maltodextrin, n=33 per group
Experimental: The test product consists of hesperidin and is administered orally.
The active agent was tested alone in a randomized double-blind study.
66 women were divided into two groups, one of these groups testing maltodextrin (n=33 group A), the other testing hesperidin (n=33 group B).
The supplementation was 500 mg of hesperidin per day.
The evolution of various cutaneous markers was studied by proteomics on samples of isolated stratum corneum as indicated hereinbelow.
A sample is taken at times D1 and D168 with varnish strips in order to remove only part of the stratum corneum, i.e. at most the first 4 to 5 layers of stratum corneum.
To do this, a 41 μm Nylon filter gauze of Millipore NY41 type is applied to a predefined area of the left leg. […]
These skin samples (varnish strips of stratum corneum) were then analysed by proteomics by means of an “isobaric marking” technique to evaluate the expression of the protein(s) under study. […]
The marked peptides are detected by mass spectrometry with the intrinsic mass of the peptide +145 Da, originating from the reagent. In the peptide fragmentation step, the contribution of each of the reagents is assessed by the release of ions (fragments) having different specific masses. […]

## COc1ccc([C@@H]2CC(=O)c3c(O)cc(O[C@@H]4O[C@H](CO[C@@H]5O[C@@H](C)[C@H](O)[C@@H](O)[C@H]5O)[C@@H](O)[C@H](O)[C@H]4O)cc3O2)cc1O [hesperidin, (S)-7-[[6-0-(6-deoxy-α-L-mannopyranosyl)-β-D-glucopyranosyl]oxy]-2,3-dihydro-5-hydroxy-2-(3-hydroxy-4-methoxyphenyl)-4H-1-benzopyran-4-one]
  expression of dermicidin in stratum corneum: significantly stimulates the expression of dermicidin
